Laboratory results published in patent US9255090B2, “Heterocyclyl derivatives and their use as prostaglandin D2 receptor modulators” (Actelion Pharmaceuticals Ltd., priority 2012, dated 2016).

Legend:
eosinophils = test: Eosinophil shape change assay with human plasma; assay type: cell-based; conditions: Homo sapiens, Eosinophil, human plasma (50%), PGD2 100 nM activation, antagonistic activity
Description: Eosinophil Shape Change Assay with Human Plasma
After obtaining informed consent, blood samples were drawn by venipuncture according to the protocol approved by the ethics committee of Basel, Switzerland. Polymorphonuclear leukocytes (containing eosinophils, basophils and neutrophils) were isolated using the Polymorphprep™ method (Axis-Shield). […] The polymorphonuclear cell fraction was harvested and depleted for erythrocytes by hypotonic saline lysis.
The polymorphonuclear cells were resuspended in assay buffer (1×PBS with Ca^2+/Mg^2+ supplemented with 0.1% BSA, 10 mM HEPES, and 10 mM Glucose, pH 7.4) at 5×10^6 cells/ml and stained with anti-CD49d-APC ((APC=Allophycocyanin) for 1 hour at RT. Test compounds, at various concentrations, were preincubated 10 min in human plasma (anticoagulated with a thrombin inhibitor). Then, human plasma was added to the polymorphonuclear cells to 50% of final assay volume with polymorphonuclear cells at 4×10^6 cells/ml. After incubation for 10 minutes at 37° C., the polymorphonuclear cells were activated for 5 min at 37° C. by addition of PGD2 at 100 nM final concentration. Activation was stopped by addition of 0.5 ml paraformaldehyde (1%).
Immediately after fixation with paraformaldehyde, the samples were analyzed by FACSCanto flow cytometer (BD Biosciences) and target cells were identified by their forward-scatter (FSC) and side-scatter (SSC) characteristics. Eosinophils were identified by the anti-CD49d-APC signal and their characteristic side-scatter (SSC) profile. Shape change responses, indicative of eosinophil activation, were quantified as the percent of cells with an increased forward-scatter.

hCRTH2 receptor = hCRTH2 receptor (Homo sapiens (Human), UniProt Q9Y5Y4); test: hCRTH2 receptor membranes radioligand (3H-PGD2) displacement assay; assay type: binding; conditions: 3H-PGD2 radioligand displacement, HEK293-hCRTH2 membranes
Method in brief: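 HEK293-hCRTH2 membranes, 20 μg/well; 3H-PGD2 added at 2.5 nM; binding buffer 50 mM Tris, 10 mM MnCl2, 1 mM EDTA, pH 7.0; 90 min RT; GF/C filtration, scintillation count. Nonspecific binding: PGD2 at […].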

hCRTH2 receptor, sequence (Q9Y5Y4 whole entry): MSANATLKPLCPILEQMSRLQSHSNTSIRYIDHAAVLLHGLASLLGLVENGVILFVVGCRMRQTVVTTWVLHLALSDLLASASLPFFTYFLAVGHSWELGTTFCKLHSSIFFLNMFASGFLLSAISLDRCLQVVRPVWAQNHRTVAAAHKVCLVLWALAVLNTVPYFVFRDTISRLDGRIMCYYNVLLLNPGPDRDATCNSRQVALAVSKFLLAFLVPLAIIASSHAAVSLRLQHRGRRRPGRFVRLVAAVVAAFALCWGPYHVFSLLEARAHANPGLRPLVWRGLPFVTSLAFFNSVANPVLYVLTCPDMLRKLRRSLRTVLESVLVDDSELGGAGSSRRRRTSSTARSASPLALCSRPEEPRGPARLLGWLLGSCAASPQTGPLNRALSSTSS

Compound	IC50 (eosinophils) [nM]	IC50 (hCRTH2 receptor) [nM]
COc1ccc(CC(=O)O)cc1-c1ccc(F)c2c1CN(C(=O)CC1CCCc3ccccc31)CC2 (racemic) [Example 263]	64	4.9
COc1ccc(CC(=O)O)cc1-c1ccc(F)c2c1CN(C(=O)CC(C)c1ccccn1)CC2 (racemic) [Example 265]	98	7.8
COc1ccc(CC(=O)O)cc1-c1ccc(F)c2c1CN(C(=O)CC1COCc3ccccc31)CC2 (racemic) [Example 271]	91	22.3
CCOc1ccc(CC(=O)O)cc1-c1ccc(F)c2c1CN(C(=O)CC(C)c1ccc(F)cc1)CC2 (racemic) [Example 278]	19	3.9
CCOc1ccc(CC(=O)O)cc1-c1ccc(F)c2c1CN(C(=O)CC(C)c1cccc(F)c1)CC2 (racemic) [Example 279]	45	6.9
CCOc1ccc(CC(=O)O)cc1-c1ccc(F)c2c1CN(C(=O)CC(C)c1cccc(C)n1)CC2 (racemic) [Example 328]	15	1.8
CCOc1ccc(CC(=O)O)cc1-c1ccc(F)c2c1CN(C(=O)[C@@H]1C[C@H]1c1ccccn1)CC2 (racemic) [Example 330]	15	0.6
CCOc1ccc(CC(=O)O)cc1-c1ccc(F)c2c1CN(C(=O)CC1COc3ccccc3C1)CC2 (racemic) [Example 332]	15	11.8
CCOc1ccc(CC(=O)O)cc1-c1ccc(F)c2c1CN(C(=O)CC1CCOc3cc(F)ccc31)CC2 (racemic) [Example 335]	26	0.9
CCOc1cc(CC(=O)O)ccc1-c1ccc(F)c2c1CN(C(=O)CC(C)c1ccccn1)CC2 (racemic) [Example 344]	51	0.9
CCOc1ccc(CC(=O)O)cc1-c1ccc(F)c2c1CN(C(=O)CC(C)c1ccccn1)CC2 (racemic) [Example 345]	31	4.8
CCOc1ccc(CC(=O)O)cc1-c1ccc(F)c2c1CN(C(=O)CC1CCCc3cccnc31)CC2 (racemic) [Example 350]	9	8.2
CCOc1ccc(CC(=O)O)cc1-c1ccc(F)c2c1CN(C(=O)C(C)Cc1ccccn1)CC2 (racemic) [Example 351]	26	3.1
CCOc1cc(CC(=O)O)ccc1-c1ccc(F)c2c1CN(C(=O)C(C)Cc1ccccn1)CC2 (racemic) [Example 352]	103	8.1
COc1cc(CC(=O)O)ccc1-c1ccc(F)c2c1CN(C(=O)CC1CCc3ccccc31)CC2 (racemic) [Example 360]	30	6.1
O=C(O)Cc1ccc(OC(F)(F)F)c(-c2ccc(F)c3c2CN(C(=O)OCc2ccccc2)CC3)c1 [Example 21, 8-(5-Carboxymethyl-2-trifluoromethoxy-phenyl)-5-fluoro-3,4-dihydro-1H-isoquinoline-2-carboxylic acid benzyl ester]	64	2.19
CC(C)Oc1ccc(CC(=O)O)cc1-c1ccc(F)c2c1CN(C(=O)OCc1ccccc1)CC2 [Example 22, 8-(5-Carboxymethyl-2-isopropoxy-phenyl)-5-fluoro-3,4-dihydro-1H-isoquinoline-2-carboxylic acid benzyl ester]	38	4.72

Compound	IC50 (eosinophils) [nM]	IC50 (hCRTH2 receptor) [nM]
O=C(O)Cc1ccc(Cl)c(-c2ccc(F)c3c2CN(C(=O)[C@@H]2C[C@H]2c2ccccc2)CC3)c1 [Example 28, {4-Chloro-3-[5-fluoro-2-((1R,2R)-2-phenyl-cyclopropanecarbonyl)-1,2,3,4-tetrahydro-isoquinolin-8-yl]-phenyl}-acetic acid]	42	10
CS(=O)(=O)c1ccc(CC(=O)O)cc1-c1ccc(F)c2c1CN(C(=O)[C@@H]1C[C@H]1c1ccccc1)CC2 [Example 29, {3-[5-Fluoro-2-((1R,2R)-2-phenyl-cyclopropanecarbonyl)-1,2,3,4-tetrahydro-isoquinolin-8-yl]-4-methanesulfonyl-phenyl}-acetic acid]	20	6.6
COc1ccc(CC(=O)O)cc1-c1cc(F)c(F)c2c1CN(C(=O)OCc1ccccc1)CC2 [Example 31, 8-(5-Carboxymethyl-2-methoxy-phenyl)-5,6-difluoro-3,4-dihydro-1H-isoquinoline-2-carboxylic acid benzyl ester]	436	12
COc1ccc(CC(=O)O)cc1-c1cc(F)cc2c1CN(C(=O)OCc1ccccc1)CC2 [Example 32, 8-(5-Carboxymethyl-2-methoxy-phenyl)-6-fluoro-3,4-dihydro-1H-isoquinoline-2-carboxylic acid benzyl ester]	356	10.5
COc1ccc(CC(=O)O)cc1-c1cc(F)cc2c1CN(C(=O)[C@@H]1C[C@H]1c1ccccc1)CC2 [Example 34, {3-[6-Fluoro-2-((1R,2R)-2-phenyl-cyclopropanecarbonyl)-1,2,3,4-tetrahydro-isoquinolin-8-yl]-4-methoxy-phenyl}-acetic acid]	25	2.7
COc1ccc(CC(=O)O)cc1-c1c(F)cc(F)c2c1CN(C(=O)OCc1ccccc1)CC2 [Example 39, 8-(5-Carboxymethyl-2-methoxy-phenyl)-5,7-difluoro-3,4-dihydro-1H-isoquinoline-2-carboxylic acid benzyl ester]	404	5.89
COc1ccc(CC(=O)O)cc1-c1ccc(F)c2c1CN(C(=O)CCOc1ccc(F)cc1)CC2 [Example 42, (3-{5-Fluoro-2-[3-(4-fluoro-phenoxy)-propionyl]-1,2,3,4-tetrahydro-isoquinolin-8-yl}-4-methoxy-phenyl)-acetic acid]	118	8.76
COc1ccc(CC(=O)O)cc1-c1ccc(F)c2c1CN(C(=O)CCCc1ccccc1F)CC2 [Example 45, (3-{5-Fluoro-2-[4-(2-fluoro-phenyl)-butyryl]-1,2,3,4-tetrahydro-isoquinolin-8-yl}-4-methoxy-phenyl)-acetic acid]	64	2.9
COc1ccc(CC(=O)O)cc1-c1ccc(F)c2c1CN(C(=O)CCc1ccccc1)CC2 [Example 54, {3-[5-Fluoro-2-(3-phenyl-propionyl)-1,2,3,4-tetrahydro-isoquinolin-8-yl]-4-methoxy-phenyl}-acetic acid]	184	5.83
COc1ccc(CC(=O)O)cc1-c1ccc(F)c2c1CN(C(=O)COCc1ccccc1Cl)CC2 [Example 58, (3-{2-[2-(2-Chloro-benzyloxy)-acetyl]-5-fluoro-1,2,3,4-tetrahydro-isoquinolin-8-yl}-4-methoxy-phenyl)-acetic acid]	122	3.57
COc1ccc(CC(=O)O)cc1-c1ccc(F)c2c1CN(C(=O)CCN1CCc3ccccc31)CC2 [Example 59, {3-[2-(3-2,3-Dihydro-indol-1-yl-propionyl)-5-fluoro-1,2,3,4-tetrahydro-isoquinolin-8-yl]-4-methoxy-phenyl}-acetic acid]	182	7.4
COc1ccc(CC(=O)O)cc1-c1ccc(F)c2c1CN(C(=O)CCc1c(C)[nH]c3ccccc13)CC2 [Example 61, (3-{5-Fluoro-2-[3-(2-methyl-1H-indol-3-yl)-propionyl]-1,2,3,4-tetrahydro-isoquinolin-8-yl}-4-methoxy-phenyl)-acetic acid]	52	8
COc1ccc(CC(=O)O)cc1-c1ccc(F)c2c1CN(C(=O)CCc1cn(C)c3ccccc13)CC2 [Example 62, (3-{5-Fluoro-2-[3-(1-methyl-1H-indol-3-yl)-propionyl]-1,2,3,4-tetrahydro-isoquinolin-8-yl}-4-methoxy-phenyl)-acetic acid]	106	4.74
COc1ccc(CC(=O)O)cc1-c1ccc(Cl)c2c1CN(C(=O)[C@@H]1C[C@H]1c1cccc(F)c1)CC2 [Example 69, (3-{5-Chloro-2-[(1R,2R)-2-(3-fluoro-phenyl)-cyclopropanecarbonyl]-1,2,3,4-tetrahydro-isoquinolin-8-yl}-4-methoxy-phenyl)-acetic acid]	78	9.58
COc1ccc(CC(=O)O)cc1-c1ccc(Cl)c2c1CN(C(=O)[C@@H]1C[C@H]1c1ccccc1)CC2 [Example 71, {3-[5-Chloro-2-((1R,2R)-2-phenyl-cyclopropanecarbonyl)-1,2,3,4-tetrahydro-isoquinolin-8-yl]-4-methoxy-phenyl}-acetic acid]	22	1.68
COc1ccc(CC(=O)O)cc1-c1ccc(F)c2c1CN(C(=O)[C@@H]1C[C@H]1c1ccccc1)CC2 [Example 80, {3-[5-Fluoro-2-((1R,2R)-2-phenyl-cyclopropanecarbonyl)-1,2,3,4-tetrahydro-isoquinolin-8-yl]-4-methoxy-phenyl}-acetic acid]	4.7	1.89
